# Test system: salt sensitive rat model
# Experiment: Stroke in salt sensitive rat model (summary statements)
# Assay type: in vivo
# Settings: preventative treatment
smiles,measurement,value
"CC(=O)Nc1ccc(C2=NNC(=O)C[C@H]2C)cc1 [metabolite (II), (R)—N-[4-(1,4,5,6-tetrahydro-4-methyl-6-oxo-3-pyridazinyl)phenyl]acetamide]","incidence and volume of brain lesions, behavioural disorders and mortality associated with stroke",markedly reduce

# From patent US8329693B2, “Method for the prevention of thromboembolic disorders” (Orion Corporation, priority 2004, dated 2012)
